Molecular target: USP30 (Homo sapiens (Human), UniProt Q70CQ3)
Assay: USP30 biochemical IC50 assay
Conditions: read-out: IC50 range; fluorescence polarisation, TAMRA labelled peptide linked to ubiquitin; 30 min pre-incubation, read after 2 hr
Method: USP30 Biochemical IC50 Assay
Dilution plates were prepared at 21 times the final concentration (2100 μM for a final concentration of 100 μM) in 50% DMSO in a 96-well polypropylene V-bottom plate (Greiner #651201). A typical 8-point dilution series to be 100, 30, 10, 3, 1, 0.3, 0.1, 0.03 μM final. Reactions were performed in duplicate in black 384 well plates (small volume, Greiner 784076) in a final reaction volume of 21 μl. Either 1 μl of 50% DMSO or diluted compound was added to the plate. USP30 was diluted in reaction buffer (40 mM Tris, pH 7.5, 0.005% Tween 20, 0.5 mg/ml BSA, 5 mM—beta-mercaptoethanol) to the equivalent of 0.05 μl/well and 10 μl of diluted USP30 was added to the compound. Enzyme and compound were incubated for 30 min at room temp. Reactions were initiated by the addition of 50 nM of TAMRA labelled peptide linked to ubiquitin via an iso-peptide bond as fluorescence polarisation substrate. Reactions were read immediately after addition of substrate and following a 2 hr incubation at room temperature. Readings were performed on a Pherastar Plus (BMG Labtech). λ Excitation 540 nm; λ Emission 590 nm.

USP30, sequence (Q70CQ3 57-517): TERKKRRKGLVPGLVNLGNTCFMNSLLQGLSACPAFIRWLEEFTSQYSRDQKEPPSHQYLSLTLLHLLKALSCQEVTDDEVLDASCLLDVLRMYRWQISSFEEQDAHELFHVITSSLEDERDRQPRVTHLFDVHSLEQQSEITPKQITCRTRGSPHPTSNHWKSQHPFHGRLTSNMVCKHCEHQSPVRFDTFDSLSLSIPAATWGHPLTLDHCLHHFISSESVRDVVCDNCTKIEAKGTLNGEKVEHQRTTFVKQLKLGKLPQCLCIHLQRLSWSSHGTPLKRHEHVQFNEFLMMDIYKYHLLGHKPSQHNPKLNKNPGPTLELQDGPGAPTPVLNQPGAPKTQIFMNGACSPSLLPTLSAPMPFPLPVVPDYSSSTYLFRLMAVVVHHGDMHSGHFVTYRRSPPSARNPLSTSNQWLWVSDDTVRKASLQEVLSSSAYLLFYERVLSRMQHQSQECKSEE

| Structure (SMILES) | IC50 [nM] |
| --- | --- |
| N#CN1CC[C@H](N2CCN(c3cccc(-c4ccno4)c3)S2(=O)=O)C1 [Example 1, (S)-3-(5-(3-(isoxazol-5-yl)phenyl)-1,1-dioxido-1,2,5-thiadiazolidin-2-yl)pyrrolidine-1-carbonitrile] | 100 to 1000 |
| CN1C(=O)COc2cc(N3CCN([C@@H]4CCN(C#N)C4)S3(=O)=O)ccc21 [Example 2, (R)-3-(5-(4-methyl-3-oxo-3,4-dihydro-2H-benzo[b][1,4]oxazin-7-yl)-1,1-dioxido-1,2,5-thiadiazolidin-2-yl)pyrrolidine-1-carbonitrile] | < 100 |
| N#CN1CC[C@@H](N2CCN(c3ccc4c(c3)OCC(=O)N4)S2(=O)=O)C1 [Example 3, (R)-3-(1,1-dioxido-5-(3-oxo-3,4-dihydro-2H-benzo[b][1,4]oxazin-7-yl)-1,2,5-thiadiazolidin-2-yl)pyrrolidine-1-carbonitrile] | 100 to 1000 |
| N#CN1CC[C@@H](N2CCN(c3ccc4c(c3)NC(=O)CO4)S2(=O)=O)C1 [Example 5, (R)-3-(1,1-dioxido-5-(3-oxo-3,4-dihydro-2H-benzo[b][1,4]oxazin-6-yl)-1,2,5-thiadiazolidin-2-yl)pyrrolidine-1-carbonitrile] | < 100 |
| N#CN1CC[C@@H](N2CCN(c3ccc4c(c3)N(CCO)C(=O)CO4)S2(=O)=O)C1 [Example 6, (R)-3-(5-(4-(2-hydroxyethyl)-3-oxo-3,4-dihydro-2H-benzo[b][1,4]oxazin-6-yl)-1,1-dioxido-1,2,5-thiadiazolidin-2-yl)pyrrolidine-1-carbonitrile] | 100 to 1000 |
| COc1ccc(N2CCN([C@@H]3CCN(C#N)C3)S2(=O)=O)cc1N1CCOCC1 [Example 8, (R)-3-(5-(4-methoxy-3-morpholinophenyl)-1,1-dioxido-1,2,5-thiadiazolidin-2-yl)pyrrolidine-1-carbonitrile] | 100 to 1000 |
| N#CN1CC[C@@H](N2CCN(C3CCN(c4ccccn4)C3)S2(=O)=O)C1 (stereo partly drawn) [Example 9, (3R)-3-(1,1-dioxido-5-(1-(pyridin-2-yl)pyrrolidin-3-yl)-1,2,5-thiadiazolidin-2-yl)pyrrolidine-1-carbonitrile] | 100 to 1000 |
| COc1ccccc1-c1cccc(N2CCN([C@@H]3CCN(C#N)C3)S2(=O)=O)c1 [Example 10, (R)-3-(5-(2′-methoxy-[1,1′-biphenyl]-3-yl)-1,1-dioxido-1,2,5-thiadiazolidin-2-yl)pyrrolidine-1-carbonitrile] | < 100 |
| N#CN1CC[C@@H](N2CCN(c3ccc(-c4ccccc4)cc3)S2(=O)=O)C1 [Example 11, (R)-3-(5-([1,1′-biphenyl]-4-yl)-1,1-dioxido-1,2,5-thiadiazolidin-2-yl)pyrrolidine-1-carbonitrile] | < 100 |
| N#CN1CC[C@@H](N2CCCN(c3ccc(-c4ccccc4)cc3)S2(=O)=O)C1 [Example 12, (R)-3-(6-([1,1′-biphenyl]-4-yl)-1,1-dioxido-1,2,6-thiadiazinan-2-yl)pyrrolidine-1-carbonitrile] | 100 to 1000 |
| N#CN1CC[C@@H](N2CCN(c3cccc(-c4ccccc4)c3)S2(=O)=O)C1 [Example 13, (R)-3-(5-([1,1′-biphenyl]-3-yl)-1,1-dioxido-1,2,5-thiadiazolidin-2-yl)pyrrolidine-1-carbonitrile] | < 100 |
| N#CN1CC[C@@H](N2CCCN(c3cccc(-c4ccccc4)c3)S2(=O)=O)C1 [Example 14, (R)-3-(6-([1,1′-biphenyl]-3-yl)-1,1-dioxido-1,2,6-thiadiazinan-2-yl)pyrrolidine-1-carbonitrile] | 100 to 1000 |
| COc1ccc(-c2ccccc2)cc1N1CCN([C@@H]2CCN(C#N)C2)S1(=O)=O [Example 15, (R)-3-(5-(4-methoxy-[1,1′-biphenyl]-3-yl)-1,1-dioxido-1,2,5-thiadiazolidin-2-yl)pyrrolidine-1-corbonitrile] | < 100 |
| COc1cccc(-c2cccc(N3CCN([C@@H]4CCN(C#N)C4)S3(=O)=O)c2)c1 [Example 16, (R)-3-(5-(3′-methoxy-[1,1′-biphenyl]-3-yl)-1,1-dioxido-1,2,5-thiadiazolidin-2-yl)pyrrolidine-1-carbonitrile] | < 100 |
| COc1ccccc1-c1ccc(N2CCN([C@@H]3CCN(C#N)C3)S2(=O)=O)cc1 [Example 17, (R)-3-(5-(2′-methoxy-[1,1′-biphenyl]-4-yl)-1,1-dioxido-1,2,5-thiadiazolidin-2-yl)pyrrolidine-l-carbonitrile] | < 100 |
| N#CN1CC[C@@H](N2CCN(c3ccc(-c4ccncc4)cc3)S2(=O)=O)C1 [Example 18, (R)-3-(1,1-dioxido-5-(4-(pyridin-4-yl)phenyl)-1,2,5-thiadiazolidin-2-yl)pyrrolidine-1-carbonitrile] | < 100 |
| N#CN1CC[C@@H](N2CCN(c3cccc(-c4ccncc4)c3)S2(=O)=O)C1 [Example 19, (R)-3-(1,1-dioxido-5-(3-(pyridin-4-yl)phenyl)-1,2,5-thiadiazolidin-2-yl)pyrrolidine-1-carbonitrile] | < 100 |
| Cn1cc(-c2cccc(N3CCN([C@@H]4CCN(C#N)C4)S3(=O)=O)c2)cn1 [Example 20, (R)-3-(5-(3-(1-methyl-1H-pyrazol-4-yl)phenyl)-1,1-dioxido-1,2,5-thiadiazolidin-2-yl)pyrrolidine-1-corbonitrile] | < 100 |
| Cn1cc(-c2cccc(N3CCCN([C@@H]4CCN(C#N)C4)S3(=O)=O)c2)cn1 [Example 21, (R)-3-(6-(3-(1-methyl-1H-pyrazol-4-yl)phenyl)-1,1-dioxido-1,2,6-thiadiazinan-2-yl)pyrrolidine-1-carbonitrile] | 100 to 1000 |

| Structure (SMILES) | IC50 [nM] |
| --- | --- |
| N#CN1CC[C@@H](N2CCN(c3ccc(N4CCOCC4)cc3)S2(=O)=O)C1 [Example 22, (R)-3-(5-(4-morpholinophenyl)-1,1-dioxido-1,2,5-thiadiazolidin-2-yl)pyrrolidine-1-carbonitrile] | 100 to 1000 |
| N#CN1CC[C@@H](N2CCN(c3cccc(N4CCOCC4)c3)S2(=O)=O)C1 [Example 24, (R)-3-(5-(3-morpholinophenyl)-1,1-dioxido-1,2,5-thiadiazolidin-2-yl)pyrrolidine-1-carbonitrile] | < 100 |
| N#CN1CC[C@@H](N2CCCN(c3cccc(N4CCOCC4)c3)S2(=O)=O)C1 [Example 25, (R)-3-(6-(3-morpholinophenyl)-1,1-dioxido-1,2,6-thiadiazinan-2-yl)pyrrolidine-1-carbonitrile] | 1000 to 10000 |
| N#CN1CC[C@@H](N2CCN(c3cc(-c4ccccc4)no3)S2(=O)=O)C1 [Example 26, (R)-3-(1,1-dioxido-5-(3-phenylisoxazol-5-yl)-1,2,5-thiadiazolidin-2-yl)pyrrolidine-1-carbonitrile] | < 100 |
| N#CN1CC[C@@H](N2CCCN(c3cc(-c4ccccc4)no3)S2(=O)=O)C1 [Example 27, (R)-3-(1,1-dioxido-6-(3-phenylisoxazol-5-yl)-1,2,6-thiadiazinan-2-yl)pyrrolidine-1-carbonitrile] | 100 to 1000 |
| N#CN1CC[C@@H](N2CCN(c3cc(-c4ccccc4)n[nH]3)S2(=O)=O)C1 [Example 28, (R)-3-(1,1-dioxido-5-(3-phenyl-1H-pyrazol-5-yl)-1,2,5-thiadiazolidin-2-yl)pyrrolidine-1-carbonitrile] | < 100 |
| N#CN1CC[C@@H](N2CCCN(c3cc(-c4ccccc4)n[nH]3)S2(=O)=O)C1 [Example 29, (R)-3-(1,1-dioxido-6-(3-phenyl-1H-pyrazol-5-yl)-l,2,6-thiadiazinan-2-yl)pyrrolidine-1-carbonitrile] | 100 to 1000 |
| N#CN1CC[C@@H](NS(=O)(=O)N2CCCn3nc(-c4ccccc4)cc32)C1 [Example 30, (R)—N-(1-cyanopyrrolidin-3-yl)-2-phenyl-6,7-dihydropyrazolo[1,5-a]pyrimidine-4(5H)-sulfonamide] | 100 to 1000 |
| N#CN1CC[C@H](N2CCN(c3ccccc3)S2(=O)=O)C1 [Example 31, (S)-3-(1,1-dioxido-5-phenyl-1,2,5-thiadiazolidin-2-yl)pyrrolidine-1-carbonitrile] | 1000 to 10000 |
| N#CN1CC[C@H](N2CCN(c3ccc(-c4ccncc4)cc3)S2(=O)=O)C1 [Example 32, (S)-3-(1,1-dioxido-5-(4-(pyridin-4-yl)phenyl)-1,2,5-thiadiazolidin-2-yl)pyrrolidine-1-carbonitrile] | < 100 |
| N#CN1CC[C@H](N2CCN(c3cccc(-c4ccncc4)c3)S2(=O)=O)C1 [Example 33, (S)-3-(1,1-dioxido-5-(3-(pyridin-4-yl)phenyl)-1,2,5-thiadiazolidin-2-yl)pyrrolidine-l-carbonitrile] | < 100 |
| N#CN1CC[C@H](N2CCN(c3ccc(-c4ccccc4)cc3)S2(=O)=O)C1 [Example 34] | < 100 |
| N#CN1CC[C@H](N2CCN(c3cccc(-c4ccccc4)c3)S2(=O)=O)C1 [Example 35, (S)-3-(5-([1,1′-biphenyl]-3-yl)-l,1-dioxido-1,2,5-thiadiozolidin-2-yl)pyrrolidine-1-carbonitrile] | < 100 |
| N#CN1CC[C@H](N2CCN(c3cccc(-c4ccccc4)n3)S2(=O)=O)C1 [Example 36, (S)-3-(1,1-dioxido-5-(6-phenylpyridin-2-yl)-1,2,5-thiadiazolidin-2-yl)pyrrolidine-1-carbonitrile] | < 100 |
| N#CN1CCC(N2CCN(c3ccccc3)S2(=O)=O)C1 (stereo not shown) [Example 37, 3-(1,1-dioxido-5-phenyl-1,2,5-thiadiazolidin-2-yl)pyrrolidine-1-carbonitrile] | 100 to 1000 |
| N#CN1CCC(N2CCCN(c3ccccc3)S2(=O)=O)C1 (stereo not shown) [Example 38, 3-(1,1-dioxido-6-phenyl-1,2,6-thiadiazinan-2-yl)pyrrolidine-1-carbonitrile] | 100 to 1000 |
| C[C@H]1CN(C#N)C[C@@H]1N1CCN(c2ccc(-c3ccccc3)cc2)S1(=O)=O [Example 39, (3R,4S)-3-(5-([1,1′-biphenyl]-4-yl)-1,1-dioxido-1,2,5-thiadiazolidin-2-yl)-4-methylpyrrolidine-1-carbonitrile] | < 100 |
| C[C@H]1CN(C#N)C[C@@H]1N1CCN(c2cccc(N3CCN(C)CC3)c2)S1(=O)=O [Example 40, (3S,4R)-3-methyl-4-(5-(3-(4-methylpiperazin-1-yl)phenyl)-1,1-dioxido-1,2,5-thiadiazolidin-2-yl)pyrrolidine-1-carbonitrile] | 100 to 1000 |
